Data on twelve compounds can be found in ChEMBL document CHEMBL3132744, “Structureactivity relationship studies of miniproteins targeting the androgen receptorcoactivator interaction” (Medchemcomm, 2013).

Square brackets hold non-standard residues; d marks the D form. Peptide text beside a SMILES is read from it. Phe(4-Cl) = N[C@@H](Cc1ccc(Cl)cc1)C(=O)O; Phe(2-Cl) = N[C@@H](Cc1ccccc1Cl)C(=O)O; Cha = N[C@@H](CC1CCCCC1)C(=O)O

The target of the assay is T1, Androgen receptor (Homo sapiens, UniProt P10275).
T1 sequence (P10275 whole entry): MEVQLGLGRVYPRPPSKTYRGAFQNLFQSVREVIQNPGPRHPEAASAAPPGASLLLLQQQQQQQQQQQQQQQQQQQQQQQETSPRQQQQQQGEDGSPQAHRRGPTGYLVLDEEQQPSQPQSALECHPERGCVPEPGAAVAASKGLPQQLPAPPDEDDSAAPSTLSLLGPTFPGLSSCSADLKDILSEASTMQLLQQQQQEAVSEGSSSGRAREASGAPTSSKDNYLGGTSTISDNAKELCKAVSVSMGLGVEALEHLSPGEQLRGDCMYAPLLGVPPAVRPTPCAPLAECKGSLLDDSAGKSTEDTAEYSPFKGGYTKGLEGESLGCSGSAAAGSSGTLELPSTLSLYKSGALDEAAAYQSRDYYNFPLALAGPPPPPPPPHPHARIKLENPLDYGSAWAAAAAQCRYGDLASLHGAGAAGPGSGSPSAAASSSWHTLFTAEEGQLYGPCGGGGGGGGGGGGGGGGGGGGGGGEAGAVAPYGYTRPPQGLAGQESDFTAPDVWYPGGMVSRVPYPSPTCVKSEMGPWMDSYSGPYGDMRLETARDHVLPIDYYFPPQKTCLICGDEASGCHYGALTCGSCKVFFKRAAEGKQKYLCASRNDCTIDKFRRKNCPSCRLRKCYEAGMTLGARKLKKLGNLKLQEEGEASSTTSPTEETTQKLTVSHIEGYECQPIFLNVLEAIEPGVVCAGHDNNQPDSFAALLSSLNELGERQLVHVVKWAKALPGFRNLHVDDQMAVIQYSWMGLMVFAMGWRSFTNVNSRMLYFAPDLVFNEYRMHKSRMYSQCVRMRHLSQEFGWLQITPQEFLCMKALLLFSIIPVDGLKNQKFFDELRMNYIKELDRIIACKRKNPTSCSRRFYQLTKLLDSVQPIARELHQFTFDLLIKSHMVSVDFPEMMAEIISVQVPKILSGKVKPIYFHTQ
Put plainly: Displacement of fluorescein-CSSRFESLFAGEKESR from human androgen receptor-LBD after 1 hr by fluorescence polarization assay.
As for `CC(C)C[C@H](NC(=O)[C@H](CS)NC(=O)[C@H](CC(N)=O)NC(=O)[C@H](Cc1ccc(Cl)cc1)NC(=O)[C@H](Cc1ccc(O)cc1)NC(=O)[C@H](CS)NC(=O)[C@H](C)N)C(=O)N[C@@H](Cc1ccccc1)C(=O)N[C@@H](CCC(=O)O)C(=O)NCC(=O)N[C@@H](CC(N)=O)C(=O)N[C@@H](CC(=O)O)C(=O)N[C@@H](CCC(=O)O)C(=O)N[C@@H](CCC(=O)O)C(=O)N[C@H](C(=O)N[C@@H](CS)C(=O)N[C@@H](CCCCN)C(=O)N[C@@H](CCC(=O)O)C(=O)N[C@@H](Cc1c[nH]c2ccccc12)C(=O)N[C@@H](CS)C(=O)O)[C@@H](C)O` (H-ACY[Phe(4-Cl)]NCLFEGNDEETCKEWC-OH), the Ki came out at 3 µM. To `CC[C@H](C)[C@H](NC(=O)[C@H](CS)NC(=O)[C@H](Cc1ccccc1)NC(=O)[C@H](CC(C)C)NC(=O)[C@H](CCC(=O)O)NC(=O)[C@H](CS)NC(=O)[C@H](Cc1ccccc1)NC(=O)[C@H](CCCNC(=N)N)NC(=O)[C@@H](N)CCCCN)C(=O)N[C@@H](CCC(N)=O)C(=O)NCC(=O)N[C@H](C(=O)NCC(=O)N[C@@H](CC(=O)O)C(=O)N[C@H](C(=O)N[C@@H](CCCCN)C(=O)N[C@@H](C)C(=O)N[C@@H](CS)C(=O)N[C@@H](CCC(=O)O)C(=O)N[C@@H](Cc1c[nH]c2ccccc12)C(=O)N[C@@H](C)C(=O)N[C@@H](CS)C(=O)N[C@@H](CCC(N)=O)C(=O)O)C(C)C)[C@@H](C)O` (H-KRFCELFCIQGTGDVKACEWACQ-OH) belongs 1.9 µM. Take `CC[C@H](C)[C@H](NC(=O)[C@H](CS)NC(=O)[C@H](Cc1ccccc1)NC(=O)[C@H](CC(C)C)NC(=O)[C@H](CCC(=O)O)NC(=O)[C@H](CS)NC(=O)[C@H](Cc1ccccc1)NC(=O)[C@H](CC(C)C)NC(=O)[C@@H](N)CC(N)=O)C(=O)N[C@@H](CCC(N)=O)C(=O)NCC(=O)N[C@H](C(=O)NCC(=O)N[C@@H](CC(=O)O)C(=O)N[C@H](C(=O)N[C@@H](CCCCN)C(=O)N[C@@H](C)C(=O)N[C@@H](CS)C(=O)N[C@@H](CCC(=O)O)C(=O)N[C@@H](Cc1c[nH]c2ccccc12)C(=O)N[C@@H](C)C(=O)N[C@@H](CS)C(=O)N[C@@H](CCC(N)=O)C(=O)O)C(C)C)[C@@H](C)O` (H-NLFCELFCIQGTGDVKACEWACQ-OH): the Ki was 10 µM. To `CC(C)C[C@H](NC(=O)[C@H](CCC(=O)O)NC(=O)[C@H](CS)NC(=O)[C@H](Cc1ccccc1)NC(=O)[C@H](CCCNC(=N)N)NC(=O)[C@@H](N)CC(N)=O)C(=O)N[C@@H](Cc1ccccc1)C(=O)N[C@@H](CS)C(=O)N[C@@H](Cc1ccccc1)C(=O)N[C@@H](CCC(N)=O)C(=O)NCC(=O)N[C@H](C(=O)NCC(=O)N[C@@H](CC(=O)O)C(=O)N[C@H](C(=O)N[C@@H](CCCCN)C(=O)N[C@@H](C)C(=O)N[C@@H](CS)C(=O)N[C@@H](CCC(=O)O)C(=O)N[C@@H](Cc1c[nH]c2ccccc12)C(=O)N[C@@H](C)C(=O)N[C@@H](CS)C(=O)N[C@@H](CCC(N)=O)C(=O)O)C(C)C)[C@@H](C)O` (H-NRFCELFCFQGTGDVKACEWACQ-OH) belongs 3.6 µM; to `CC[C@H](C)[C@H](NC(=O)[C@H](CS)NC(=O)[C@H](Cc1ccccc1)NC(=O)[C@H](CC(C)C)NC(=O)[C@H](CCC(=O)O)NC(=O)[C@H](CS)NC(=O)[C@H](Cc1ccccc1)NC(=O)[C@H](CCCNC(=N)N)NC(=O)[C@@H](N)CC(N)=O)C(=O)N[C@@H](CCC(=O)O)C(=O)NCC(=O)N[C@H](C(=O)NCC(=O)N[C@@H](CC(=O)O)C(=O)N[C@H](C(=O)N[C@@H](CCCCN)C(=O)N[C@@H](C)C(=O)N[C@@H](CS)C(=O)N[C@@H](CCC(=O)O)C(=O)N[C@@H](Cc1c[nH]c2ccccc12)C(=O)N[C@@H](C)C(=O)N[C@@H](CS)C(=O)N[C@@H](CCC(N)=O)C(=O)O)C(C)C)[C@@H](C)O` (H-NRFCELFCIEGTGDVKACEWACQ-OH), 2.1 µM; to `CC[C@H](C)[C@H](NC(=O)[C@H](CS)NC(=O)[C@H](Cc1ccccc1)NC(=O)[C@H](CC(C)C)NC(=O)[C@H](CCC(=O)O)NC(=O)[C@H](CS)NC(=O)[C@H](Cc1ccccc1)NC(=O)[C@H](CCCNC(=N)N)NC(=O)[C@@H](N)CC(N)=O)C(=O)N[C@@H](CCC(N)=O)C(=O)N[C@@H](CC(=O)O)C(=O)N[C@H](C(=O)NCC(=O)N[C@@H](CC(=O)O)C(=O)N[C@H](C(=O)N[C@@H](CCCCN)C(=O)N[C@@H](C)C(=O)N[C@@H](CS)C(=O)N[C@@H](CCC(=O)O)C(=O)N[C@@H](Cc1c[nH]c2ccccc12)C(=O)N[C@@H](C)C(=O)N[C@@H](CS)C(=O)N[C@@H](CCC(N)=O)C(=O)O)C(C)C)[C@@H](C)O` (H-NRFCELFCIQDTGDVKACEWACQ-OH), 2.1 µM. To `CC[C@H](C)[C@H](NC(=O)[C@H](CS)NC(=O)[C@H](Cc1ccccc1)NC(=O)[C@H](CC(C)C)NC(=O)[C@H](CCC(=O)O)NC(=O)[C@H](CS)NC(=O)[C@H](Cc1ccccc1)NC(=O)[C@H](CCCNC(=N)N)NC(=O)[C@@H](N)CC(N)=O)C(=O)N[C@@H](CCC(N)=O)C(=O)NCC(=O)N[C@H](C(=O)N[C@@H](CCC(=O)O)C(=O)N[C@@H](CC(=O)O)C(=O)N[C@H](C(=O)N[C@@H](CCCCN)C(=O)N[C@@H](C)C(=O)N[C@@H](CS)C(=O)N[C@@H](CCC(=O)O)C(=O)N[C@@H](Cc1c[nH]c2ccccc12)C(=O)N[C@@H](C)C(=O)N[C@@H](CS)C(=O)N[C@@H](CCC(N)=O)C(=O)O)C(C)C)[C@@H](C)O` (H-NRFCELFCIQGTEDVKACEWACQ-OH) belongs 3 µM; to `CC[C@H](C)[C@H](NC(=O)[C@H](CS)NC(=O)[C@H](Cc1ccccc1)NC(=O)[C@H](CC(C)C)NC(=O)[C@H](CCC(=O)O)NC(=O)[C@H](CS)NC(=O)[C@H](Cc1ccccc1)NC(=O)[C@H](CCCNC(=N)N)NC(=O)[C@@H](N)CC(N)=O)C(=O)N[C@@H](CCC(N)=O)C(=O)NCC(=O)N[C@H](C(=O)NCC(=O)N[C@@H](CC(=O)O)C(=O)N[C@H](C(=O)N[C@@H](CCCCN)C(=O)N[C@@H](C)C(=O)N[C@@H](CS)C(=O)N[C@@H](CCC(=O)O)C(=O)N[C@@H](CCC(=O)O)C(=O)N[C@@H](C)C(=O)N[C@@H](CS)C(=O)N[C@@H](CCC(N)=O)C(=O)O)C(C)C)[C@@H](C)O` (H-NRFCELFCIQGTGDVKACEEACQ-OH), 1.3 µM; to `CC[C@H](C)[C@H](NC(=O)[C@H](CS)NC(=O)[C@H](Cc1ccccc1)NC(=O)[C@H](CC(C)C)NC(=O)[C@H](CCC(=O)O)NC(=O)[C@H](CS)NC(=O)[C@H](Cc1ccccc1)NC(=O)[C@H](CCCNC(=N)N)NC(=O)[C@@H](N)CC(N)=O)C(=O)N[C@@H](CCC(N)=O)C(=O)NCC(=O)N[C@H](C(=O)NCC(=O)N[C@@H](CC(=O)O)C(=O)N[C@H](C(=O)N[C@@H](CCCCN)C(=O)N[C@@H](C)C(=O)N[C@@H](CS)C(=O)N[C@@H](CCC(=O)O)C(=O)N[C@@H](Cc1c[nH]c2ccccc12)C(=O)N[C@@H](C)C(=O)N[C@@H](CS)C(=O)N[C@@H](CCC(N)=O)C(=O)O)C(C)C)[C@@H](C)O` (H-NRFCELFCIQGTGDVKACEWACQ-OH), 4.1 µM. Then `CC[C@H](C)[C@H](NC(=O)[C@H](CS)NC(=O)[C@H](CC1CCCCC1)NC(=O)[C@H](CC(C)C)NC(=O)[C@H](CCC(=O)O)NC(=O)[C@H](CS)NC(=O)[C@H](Cc1ccccc1)NC(=O)[C@H](CCCNC(=N)N)NC(=O)[C@@H](N)CC(N)=O)C(=O)N[C@@H](CCC(N)=O)C(=O)NCC(=O)N[C@H](C(=O)NCC(=O)N[C@@H](CC(=O)O)C(=O)N[C@H](C(=O)N[C@@H](CCCCN)C(=O)N[C@@H](C)C(=O)N[C@@H](CS)C(=O)N[C@@H](CCC(=O)O)C(=O)N[C@@H](Cc1c[nH]c2ccccc12)C(=O)N[C@@H](C)C(=O)N[C@@H](CS)C(=O)N[C@@H](CCC(N)=O)C(=O)O)C(C)C)[C@@H](C)O` (H-NRFCEL[Cha]CIQGTGDVKACEWACQ-OH), with 56 µM; and `CC[C@H](C)[C@H](NC(=O)[C@H](CS)NC(=O)[C@H](Cc1ccccc1Cl)NC(=O)[C@H](CC(C)C)NC(=O)[C@H](CCC(=O)O)NC(=O)[C@H](CS)NC(=O)[C@H](Cc1ccccc1)NC(=O)[C@H](CCCNC(=N)N)NC(=O)[C@@H](N)CC(N)=O)C(=O)N[C@@H](CCC(N)=O)C(=O)NCC(=O)N[C@H](C(=O)NCC(=O)N[C@@H](CC(=O)O)C(=O)N[C@H](C(=O)N[C@@H](CCCCN)C(=O)N[C@@H](C)C(=O)N[C@@H](CS)C(=O)N[C@@H](CCC(=O)O)C(=O)N[C@@H](Cc1c[nH]c2ccccc12)C(=O)N[C@@H](C)C(=O)N[C@@H](CS)C(=O)N[C@@H](CCC(N)=O)C(=O)O)C(C)C)[C@@H](C)O` (H-NRFCEL[Phe(2-Cl)]CIQGTGDVKACEWACQ-OH), with 0.4 µM; and `CC[C@H](C)[C@H](NC(=O)[C@H](CS)NC(=O)[C@H](Cc1ccc(Cl)cc1)NC(=O)[C@H](CC(C)C)NC(=O)[C@H](CCC(=O)O)NC(=O)[C@H](CS)NC(=O)[C@H](Cc1ccccc1)NC(=O)[C@H](CCCNC(=N)N)NC(=O)[C@@H](N)CC(N)=O)C(=O)N[C@@H](CCC(N)=O)C(=O)NCC(=O)N[C@H](C(=O)NCC(=O)N[C@@H](CC(=O)O)C(=O)N[C@H](C(=O)N[C@@H](CCCCN)C(=O)N[C@@H](C)C(=O)N[C@@H](CS)C(=O)N[C@@H](CCC(=O)O)C(=O)N[C@@H](Cc1c[nH]c2ccccc12)C(=O)N[C@@H](C)C(=O)N[C@@H](CS)C(=O)N[C@@H](CCC(N)=O)C(=O)O)C(C)C)[C@@H](C)O` (H-NRFCEL[Phe(4-Cl)]CIQGTGDVKACEWACQ-OH), with 32 µM.
